Experiments:
Assay type in all cases: in vivo
[1] = test system: Echinochloa crus-galli (ECHCG); assay: Post-emergence biological efficacy (percentage damage); details: Echinochloa crus-galli, 312 h, evaluated after 13 days, 100=total damage, 0=no damage; for pest or weed control at 1000 g/ha: dose 1,000 g/ha
Procedure: (§1) Seeds of Alopecurus myosuroides (ALOMY), Setaria faberi (SETFA), Echinochloa crus-galli (ECHCG), Solanum nigrum (SOLNI), Amaranthus retoflexus (AMARE) and Ipomea hederaceae (IPOHE) were sown in standard soil in pots. After cultivation for 8 days under controlled conditions in a glasshouse (at 24/16° C., day/night; 14 hours light; 65% humidity), the plants were sprayed with an aqueous spray solution derived from the formulation of the technical active ingredient in acetone/water (50:50) solution containing 0.5% Tween 20 (polyoxyethylene sorbitan monolaurate, CAS RN 9005-64-5) to give a final dose of 250 or 1000 g/ha of test compound. The test plants were then grown on under controlled conditions in a glasshouse (at 24/16° C., day/night; 14 hours light; 65% humidity) and watered twice daily. After 13 days the test was evaluated (100=total damage to plant; 0=no damage to plant).

[2] = test system: Ipomea hederaceae (IPOHE); assay: as above; details: Ipomoea hederacea, 312 h, evaluated after 13 days, 100=total damage, 0=no damage; for pest or weed control at 1000 g/ha: dose 1,000 g/ha
Procedure: as §1

[3] = test system: Alopecurus myosuroides (ALOMY); assay: as above; details: Alopecurus myosuroides, 312 h, evaluated after 13 days, 100=total damage, 0=no damage; for pest or weed control at 1000 g/ha: dose 1,000 g/ha
Procedure: as §1

[4] = test system: Solanum nigrum (SOLNI); assay: as above; details: Solanum nigrum, 312 h, evaluated after 13 days, 100=total damage, 0=no damage; for pest or weed control at 1000 g/ha: dose 1,000 g/ha
Procedure: as §1

[5] = test system: Amaranthus retoflexus (AMARE); assay: as above; details: Amaranthus retroflexus, 312 h, evaluated after 13 days, 100=total damage, 0=no damage; for pest or weed control at 1000 g/ha: dose 1,000 g/ha
Procedure: as §1

[6] = test system: Setaria faberi (SETFA); assay: as above; details: Setaria faberi, 312 h, evaluated after 13 days, 100=total damage, 0=no damage; for pest or weed control at 1000 g/ha: dose 1,000 g/ha
Procedure: as §1

[7] = test system: Echinochloa crus-galli (ECHCG); assay: Pre-emergence biological efficacy (percentage damage); details: Echinochloa crus-galli, 312 h, evaluated after 13 days, 100=total damage, 0=no damage; for pest or weed control at 1000 g/ha: dose 1,000 g/ha
Procedure: (§2) Seeds of Alopecurus myosuroides (ALOMY), Setaria faberi (SETFA), Echinochloa crus-galli (ECHCG), Solanum nigrum (SOLNI), Amaranthus retoflexus (AMARE) and Ipomea hederaceae (IPOHE) were sown in standard soil in pots. After cultivation for one day under controlled conditions in a glasshouse (at 24/16° C., day/night; 14 hours light; 65% humidity), the plants were sprayed with an aqueous spray solution derived from the formulation of the technical active ingredient in acetone/water (50:50) solution containing 0.5% Tween 20 (polyoxyethylene sorbitan monolaurate, CAS RN 9005-64-5) to give a final dose of 250 or 1000 g/ha of test compound. The test plants were then grown under controlled conditions in the glasshouse (at 24/16° C., day/night; 14 hours light; 65% humidity) and watered twice daily. After 13 days the test was evaluated (100=total damage to plant; 0=no damage to plant).

[8] = test system: Ipomea hederaceae (IPOHE); assay: as above; details: Ipomoea hederacea, 312 h, evaluated after 13 days, 100=total damage, 0=no damage; for pest or weed control at 1000 g/ha: dose 1,000 g/ha
Procedure: as §2

[9] = test system: Alopecurus myosuroides (ALOMY); assay: as above; details: Alopecurus myosuroides, 312 h, evaluated after 13 days, 100=total damage, 0=no damage; for pest or weed control at 1000 g/ha: dose 1,000 g/ha
Procedure: as §2

[10] = test system: Solanum nigrum (SOLNI); assay: as above; details: Solanum nigrum, 312 h, evaluated after 13 days, 100=total damage, 0=no damage; for pest or weed control at 1000 g/ha: dose 1,000 g/ha
Procedure: as §2

[11] = test system: Amaranthus retoflexus (AMARE); assay: as above; details: Amaranthus retroflexus, 312 h, evaluated after 13 days, 100=total damage, 0=no damage; for pest or weed control at 1000 g/ha: dose 1,000 g/ha
Procedure: as §2

[12] = test system: Setaria faberi (SETFA); assay: as above; details: Setaria faberi, 312 h, evaluated after 13 days, 100=total damage, 0=no damage; for pest or weed control at 1000 g/ha: dose 1,000 g/ha
Procedure: as §2

Work on `COC(=O)c1nc(C2CC2)nc(N)c1C#CC(C)(C)C` [Compound 2-77, 4-Amino-2-cyclopropyl-5-(3,3-dimethylbut-1-ynyl)-6-methoxycarbonyl-pyrimidine] yielded a pest or weed control at 250 g/ha ([1]; dose 250 g/ha) of 0%, a pest or weed control at 250 g/ha ([2]; dose 250 g/ha) of 70% and a pest or weed control at 250 g/ha ([3]; dose 250 g/ha) of 0%. It also gave a pest or weed control at 250 g/ha ([4]; dose 250 g/ha) of 40%, a pest or weed control at 250 g/ha ([5]; dose 250 g/ha) of 30% and a pest or weed control at 250 g/ha ([6]; dose 250 g/ha) of 0%. For the same compound, the pest or weed control at 250 g/ha ([7]; dose 250 g/ha) was 0%, the pest or weed control at 250 g/ha ([8]; dose 250 g/ha) was 0% and the pest or weed control at 250 g/ha ([9]; dose 250 g/ha) was 0%. For the same compound, the pest or weed control at 250 g/ha ([10]; dose 250 g/ha) was 0%, the pest or weed control at 250 g/ha ([11]; dose 250 g/ha) was 0% and the pest or weed control at 250 g/ha ([12]; dose 250 g/ha) was 0%.

Work on `COC(=O)c1nc(C2CC2)nc(N)c1C#C[Si](C)(C)C` [Compound 2-78, 4-amino-2-cyclopropyl-6-methoxycarbonyl-5-(trimethylsilylethynyl)-pyrimidine] yielded a pest or weed control at 1000 g/ha [1] of 60%, a pest or weed control at 1000 g/ha [2] of 100% and a pest or weed control at 1000 g/ha [3] of 30%. The pest or weed control at 1000 g/ha [4] was 100%, the pest or weed control at 1000 g/ha [5] was 100% and the pest or weed control at 1000 g/ha [6] was 60%. It also gave a pest or weed control at 1000 g/ha [7] of 30%, a pest or weed control at 1000 g/ha [8] of 100% and a pest or weed control at 1000 g/ha [9] of 20%. The pest or weed control at 1000 g/ha [10] was 90%, the pest or weed control at 1000 g/ha [11] was 90% and the pest or weed control at 1000 g/ha [12] was 10%.

For `COC(=O)c1nc(C2CC2)nc(N(C)C)c1C` [Compound 2-221, 2-Cyclopropyl-4-dimethylamino-6-methoxycarbonyl-5-methylpyrimidine], the pest or weed control at 1000 g/ha [1] was 70%, the pest or weed control at 1000 g/ha [2] was 80% and the pest or weed control at 1000 g/ha [3] was 20%. The pest or weed control at 1000 g/ha [4] was 80%, the pest or weed control at 1000 g/ha [5] was 100% and the pest or weed control at 1000 g/ha [6] was 60%. It also gave a pest or weed control at 1000 g/ha [7] of 0%, a pest or weed control at 1000 g/ha [8] of 70% and a pest or weed control at 1000 g/ha [9] of 30%. For the same compound, the pest or weed control at 1000 g/ha [10] was 60%, the pest or weed control at 1000 g/ha [11] was 60% and the pest or weed control at 1000 g/ha [12] was 0%.

Work on `C=Cc1c(C(=O)OC)nc(C2CC2)nc1N(C)C` [Compound 2-225, 2-Cyclopropyl-4-dimethylamino-5-ethenyl-6-methoxycarbonyl-pyrimidine] yielded a pest or weed control at 1000 g/ha [1] of 0%, a pest or weed control at 1000 g/ha [2] of 30% and a pest or weed control at 1000 g/ha [3] of 0%. The pest or weed control at 1000 g/ha [4] was 50%, the pest or weed control at 1000 g/ha [5] was 40% and the pest or weed control at 1000 g/ha [6] was 0%. For the same compound, the pest or weed control at 1000 g/ha [7] was 0%, the pest or weed control at 1000 g/ha [8] was 20% and the pest or weed control at 1000 g/ha [9] was 0%. For the same compound, the pest or weed control at 1000 g/ha [10] was 0%, the pest or weed control at 1000 g/ha [11] was 40% and the pest or weed control at 1000 g/ha [12] was 0%.

Work on `COC(=O)COc1nc(C2CC2)nc(N)c1C` [Compound 2-362, 4-amino-2-cyclopropyl-6-methoxycarbonylmethoxy-5-methylpyrimidine] yielded a pest or weed control at 1000 g/ha [1] of 60%, a pest or weed control at 1000 g/ha [2] of 80% and a pest or weed control at 1000 g/ha [3] of 40%. It also gave a pest or weed control at 1000 g/ha [4] of 80%, a pest or weed control at 1000 g/ha [5] of 80% and a pest or weed control at 1000 g/ha [6] of 70%. It also gave a pest or weed control at 1000 g/ha [7] of 10%, a pest or weed control at 1000 g/ha [8] of 30% and a pest or weed control at 1000 g/ha [9] of 40%. For the same compound, the pest or weed control at 1000 g/ha [10] was 10%, the pest or weed control at 1000 g/ha [11] was 40% and the pest or weed control at 1000 g/ha [12] was 40%.

Compound `C=Cc1c(N)nc(SC)nc1OCC(=O)OC` [Compound 2-366, 4-amino-5-ethenyl-6-methoxycarbonylmethoxy-2-methylthio-pyrimidine] has a pest or weed control at 1000 g/ha [1] of 0%, a pest or weed control at 1000 g/ha [2] of 0% and a pest or weed control at 1000 g/ha [3] of 0%. The pest or weed control at 1000 g/ha [4] was 20%, the pest or weed control at 1000 g/ha [5] was 0% and the pest or weed control at 1000 g/ha [6] was 0%. It also gave a pest or weed control at 1000 g/ha [7] of 0%, a pest or weed control at 1000 g/ha [8] of 0% and a pest or weed control at 1000 g/ha [9] of 0%. It also gave a pest or weed control at 1000 g/ha [10] of 0%, a pest or weed control at 1000 g/ha [11] of 0% and a pest or weed control at 1000 g/ha [12] of 0%.

Source: patent US20120053053A1, “PYRIMIDINE DERIVATIVES AND THEIR USE AS HERBICIDES” (SYNGENTA CROP PROTECTION, LLC, priority 2009, published 2012)
